Test results as given in ChEMBL document CHEMBL1133910, “N-hydroxyformamide peptidomimetics as TACE/matrix metalloprotease inhibitors: oral activity via P1' isobutyl substitution” (Bioorg Med Chem Lett, 2001).
The source made the active and inactive calls. The calls are words filed in the database; no cut-off is given here.

Columns and labels:
[1] = target: Matrix metalloproteinase-9 (Homo sapiens, UniProt P14780); test: Inhibition of Matrix metalloprotease-9
[2] = target: T1, Disintegrin and metalloproteinase domain-containing protein 17 (Homo sapiens, UniProt P78536); test: Inhibition of Tumor necrosis factor alpha converting enzyme
T1 sequence (P78536 whole entry, the tested form may be a part): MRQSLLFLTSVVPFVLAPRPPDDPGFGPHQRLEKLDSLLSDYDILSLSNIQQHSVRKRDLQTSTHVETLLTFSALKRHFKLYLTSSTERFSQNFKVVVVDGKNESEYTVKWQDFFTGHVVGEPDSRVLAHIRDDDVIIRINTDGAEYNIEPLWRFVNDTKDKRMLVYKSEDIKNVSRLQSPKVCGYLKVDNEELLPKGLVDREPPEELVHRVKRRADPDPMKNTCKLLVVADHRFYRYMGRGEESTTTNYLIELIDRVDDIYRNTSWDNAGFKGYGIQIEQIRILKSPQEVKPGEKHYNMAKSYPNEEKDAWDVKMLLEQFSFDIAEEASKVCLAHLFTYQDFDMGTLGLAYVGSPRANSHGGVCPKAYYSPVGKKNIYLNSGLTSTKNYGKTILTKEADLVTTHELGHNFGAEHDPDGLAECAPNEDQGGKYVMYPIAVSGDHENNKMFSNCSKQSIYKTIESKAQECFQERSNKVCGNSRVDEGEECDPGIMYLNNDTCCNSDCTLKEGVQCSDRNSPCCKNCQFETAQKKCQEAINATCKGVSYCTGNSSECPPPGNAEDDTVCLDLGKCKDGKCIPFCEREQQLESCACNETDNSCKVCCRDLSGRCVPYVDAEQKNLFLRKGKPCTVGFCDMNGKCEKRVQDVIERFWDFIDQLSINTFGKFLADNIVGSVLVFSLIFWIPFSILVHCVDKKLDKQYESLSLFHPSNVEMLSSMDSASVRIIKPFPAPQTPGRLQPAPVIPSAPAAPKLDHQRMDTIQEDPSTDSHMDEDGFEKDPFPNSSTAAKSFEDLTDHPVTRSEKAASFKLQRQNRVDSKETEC

[3] = Compound was evaluated for inhibition of cellular release of TNF-alpha from MonoMac-6 cells; type: functional, cell-based; details: Homo sapiens, MONO-MAC-6
Interstitial collagenase = target: T2, Interstitial collagenase (Homo sapiens, UniProt P03956); test: Inhibition of Matrix metalloprotease-1
T2 sequence (P03956 whole entry): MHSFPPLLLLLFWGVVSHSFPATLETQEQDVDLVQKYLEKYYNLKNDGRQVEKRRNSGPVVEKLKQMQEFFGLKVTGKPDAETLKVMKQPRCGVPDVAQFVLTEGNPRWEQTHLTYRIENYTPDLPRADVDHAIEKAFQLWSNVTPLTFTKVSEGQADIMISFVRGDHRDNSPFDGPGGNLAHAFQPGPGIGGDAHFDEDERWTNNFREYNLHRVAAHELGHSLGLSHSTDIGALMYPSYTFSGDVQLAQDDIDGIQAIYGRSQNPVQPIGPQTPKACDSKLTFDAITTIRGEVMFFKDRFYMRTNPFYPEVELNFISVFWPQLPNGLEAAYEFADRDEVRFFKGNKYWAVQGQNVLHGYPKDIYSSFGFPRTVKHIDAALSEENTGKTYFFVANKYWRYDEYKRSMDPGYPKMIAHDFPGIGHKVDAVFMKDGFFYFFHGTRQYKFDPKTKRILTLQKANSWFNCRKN

Mus musculus [4] = test: In vivo inhibition of Murine Lipopolysaccharide induced plasma TNF on peroral administration of the compound; type: functional; set-up: concentration or dose not given beside the values
Stromelysin-1 [5] = target: T3, Stromelysin-1 (Homo sapiens, UniProt P08254); test: Inhibition of Matrix metalloprotease-3
T3 sequence (P08254 whole entry): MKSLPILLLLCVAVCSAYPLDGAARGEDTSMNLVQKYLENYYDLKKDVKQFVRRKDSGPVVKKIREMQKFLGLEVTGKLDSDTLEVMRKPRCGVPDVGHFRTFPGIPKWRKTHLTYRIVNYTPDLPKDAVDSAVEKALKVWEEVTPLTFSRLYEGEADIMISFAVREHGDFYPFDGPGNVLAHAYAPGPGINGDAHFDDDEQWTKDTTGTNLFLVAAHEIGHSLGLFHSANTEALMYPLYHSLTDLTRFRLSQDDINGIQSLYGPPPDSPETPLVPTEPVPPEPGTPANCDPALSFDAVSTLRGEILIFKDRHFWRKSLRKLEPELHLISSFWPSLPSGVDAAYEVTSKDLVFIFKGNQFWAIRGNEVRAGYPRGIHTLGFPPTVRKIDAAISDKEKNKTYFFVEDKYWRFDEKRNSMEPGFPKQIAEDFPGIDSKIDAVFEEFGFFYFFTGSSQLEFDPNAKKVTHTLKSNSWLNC

Stromelysin-1 [6] = target: T3, Stromelysin-1; test: Inhibition of matrix metalloprotease-3 (MMP3)
Mus musculus [7] = test: In vivo inhibition of Murine Lipopolysaccharide induced plasma TNF on peroral administration of the compound; IA means inactive; type: functional, organism-based
[8] = Clearance by intravenous administration of 3.4 mg/kg in rat; type: ADME, organism-based; set-up: dose 3.4 mg/kg, route intravenous; details: in vivo
[9] = Half life by intravenous administration of 3.4 mg/kg in rat; type: ADME, organism-based; set-up: dose 3.4 mg/kg, route intravenous; details: in vivo
[10] = Maximum concentration by intravenous administration of 3.4 mg/kg in rat; type: ADME, organism-based; set-up: dose 3.4 mg/kg, route intravenous; details: in vivo
[11] = Bioavailability by intravenous administration of 1.2 mg/kg in dog; type: ADME, organism-based, Canis lupus familiaris; details: in vivo
Mus musculus [12] = test: Percent inhibition of Murine Lipopolysaccharide induced plasma TNF on peroral administration of the compound; type: functional
[13] = Clearance by intravenous administration of 1.2 mg/kg in dog; type: ADME, organism-based, Canis lupus familiaris; set-up: dose 1.2 mg/kg, route intravenous; details: in vivo
[14] = Area under curve was determined for the compound by intravenous administration of 1.2 mg/kg in dog; type: ADME, organism-based, Canis lupus familiaris; set-up: dose 1.2 mg/kg, route intravenous; details: in vivo
[15] = Maximum concentration by intravenous administration of 1.2 mg/kg in dog; type: ADME, organism-based, Canis lupus familiaris; set-up: dose 1.2 mg/kg, route intravenous; details: in vivo
[16] = Bioavailability by intravenous administration of 3.4 mg/kg in rat; type: ADME, organism-based; details: in vivo
[17] = Area under curve was determined for the compound by intravenous administration of 3.4 mg/kg in rat; type: ADME, organism-based; set-up: dose 3.4 mg/kg, route intravenous; details: in vivo
[18] = Half life by intravenous administration of 1.2 mg/kg in dog; type: ADME, organism-based, Canis lupus familiaris; set-up: dose 1.2 mg/kg, route intravenous; details: in vivo
Mus musculus [19] = test: In vivo inhibition of Murine Lipopolysaccharide induced plasma TNF on peroral administration of the compound; IA means Inactive; type: functional, organism-based
[20] = target: T1, Disintegrin and metalloproteinase domain-containing protein 17; test: Inhibition of TNF-alpha converting enzyme (TACE)

Matrix metalloproteinase-9, sequence (P14780 whole entry, the tested form may be a part): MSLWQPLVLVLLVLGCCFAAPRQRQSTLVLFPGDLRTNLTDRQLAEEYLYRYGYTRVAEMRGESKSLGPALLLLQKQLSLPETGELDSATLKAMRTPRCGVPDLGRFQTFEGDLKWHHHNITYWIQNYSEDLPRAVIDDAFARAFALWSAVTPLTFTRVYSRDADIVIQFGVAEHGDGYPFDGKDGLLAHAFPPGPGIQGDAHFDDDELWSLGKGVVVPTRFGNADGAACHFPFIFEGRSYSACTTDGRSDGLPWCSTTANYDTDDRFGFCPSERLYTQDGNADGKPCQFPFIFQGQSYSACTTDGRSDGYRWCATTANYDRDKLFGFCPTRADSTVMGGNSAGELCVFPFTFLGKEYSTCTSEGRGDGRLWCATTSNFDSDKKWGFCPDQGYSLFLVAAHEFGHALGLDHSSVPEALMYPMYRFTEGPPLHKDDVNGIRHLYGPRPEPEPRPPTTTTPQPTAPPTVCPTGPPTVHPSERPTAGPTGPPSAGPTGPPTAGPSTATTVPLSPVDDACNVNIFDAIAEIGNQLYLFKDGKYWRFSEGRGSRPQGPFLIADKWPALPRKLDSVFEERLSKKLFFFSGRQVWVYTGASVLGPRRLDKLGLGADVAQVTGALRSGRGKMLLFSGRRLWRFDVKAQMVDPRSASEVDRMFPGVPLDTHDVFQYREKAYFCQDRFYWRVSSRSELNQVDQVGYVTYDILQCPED

CC(C)C[C@@H](C(=O)N[C@H](C(=O)Nc1nccs1)C(C)C)[C@H](C)N(O)C=O
Ki [1]: 17 nM
Ki [2]: 27 nM
IC50 [3]: 681 nM
Ki (Interstitial collagenase): 36 nM
Inhibition (Mus musculus [4]): 61%
Ki (Stromelysin-1 [5]): 120 nM

CCC(C)[C@H](NC(=O)[C@H](CC(C)C)[C@H](CC)N(O)C=O)C(=O)Nc1ccccn1 (stereo not given in full)
Ki [1]: 73 nM
Ki [2]: 31 nM
IC50 [3]: 1410 nM
Ki (Interstitial collagenase): 55 nM
Inhibition (Mus musculus [4]): 62%
Ki (Stromelysin-1 [6]): 38 nM

CC[C@H](C)C(NC(=O)[C@H](CC(C)C)[C@H](C)N(O)C=O)C(=O)Nc1nccs1 (single isomer, unassigned)
Ki [1]: 29 nM
Ki [2]: 20 nM
IC50 [3]: 270 nM
Ki (Interstitial collagenase): 41 nM
Inhibition (Mus musculus [4]): 48%
Ki (Stromelysin-1 [5]): 93 nM

CC(C)C[C@@H](C(=O)N[C@H](C(N)=O)C(C)(C)C)[C@H](C)N(O)C=O
Ki [1]: 33 nM
Ki [2]: 156 nM
IC50 [3]: 3070 nM
Ki (Interstitial collagenase): 181 nM
Ki (Stromelysin-1 [5]): 406 nM

CC[C@@H]([C@@H](CC(C)C)C(=O)N[C@H](C(=O)Nc1nccs1)C(C)(C)C)N(O)C=O
Ki [1]: 28 nM
Ki [2]: 16 nM
IC50 [3]: 200 nM
Ki (Interstitial collagenase): 16 nM
Inhibition (Mus musculus [4]): 52%
Ki (Stromelysin-1 [6]): 135 nM

CC(C)C[C@@H](C(=O)N[C@@H](CC(C)(C)C)C(=O)Nc1nccs1)[C@H](C)N(O)C=O
Ki [1]: 98 nM
Ki [2]: 64 nM
IC50 [3]: 3960 nM
Ki (Interstitial collagenase): 170 nM
inhibition (Mus musculus [7]): inactive
Ki (Stromelysin-1 [5]): 354 nM

CC(C)C[C@@H](C(=O)N[C@H](C(=O)Nc1nccs1)C(C)(C)C)[C@H](C)N(O)C=O
clearance [8]: 62 mL/min/kg
half-life [9]: 3.4 h
Ki [1]: 34 nM
Ki [2]: 20 nM
Cmax [10]: 2330 ng/mL
IC50 [3]: 245 nM
bioavailability [11]: 44%
Ki (Interstitial collagenase): 27 nM
Inhibition (Mus musculus [12]): 60%
clearance [13]: 10 mL/min/kg
AUC [14]: 2100 ng·h/mL
Cmax [15]: 4530 ng/mL
Ki (Stromelysin-1 [5]): 437 nM
bioavailability [16]: 26%
AUC [17]: 957 ng·h/mL
half-life [18]: 2.8 h

CC[C@H](C)[C@H](NC(=O)[C@H](CC(C)C)[C@H](CC)N(O)C=O)C(=O)Nc1nccs1
Ki [1]: 24 nM
Ki [2]: 11 nM
IC50 [3]: 92 nM
Ki (Interstitial collagenase): 42 nM
Inhibition (Mus musculus [4]): 48%
Ki (Stromelysin-1 [6]): 45 nM

CNC(=O)[C@@H](NC(=O)[C@H](CC(C)C)[C@H](C)N(O)C=O)C(C)(C)C
Ki [1]: 21 nM
Ki [2]: 142 nM
IC50 [3]: 2950 nM
Ki (Interstitial collagenase): 17 nM
Ki (Stromelysin-1 [5]): 2320 nM

CC[C@@H]([C@@H](CC(C)C)C(=O)N[C@H](C(=O)Nc1ccccn1)C(C)(C)C)N(O)C=O
Ki [1]: 89 nM
Ki [2]: 29 nM
IC50 [3]: 304 nM
Ki (Interstitial collagenase): 47 nM
Inhibition (Mus musculus [4]): 61%
Ki (Stromelysin-1 [6]): 153 nM

CC(C)C[C@H](NC(=O)[C@H](CC(C)C)[C@H](C)N(O)C=O)C(=O)Nc1nccs1
Ki [1]: 17 nM
Ki [2]: 55 nM
IC50 [3]: 1690 nM
Ki (Interstitial collagenase): 97 nM
inhibition (Mus musculus [7]): inactive
Ki (Stromelysin-1 [5]): 80 nM

CNC(=O)[C@@H](NC(=O)[C@@H](CC(=O)NO)CC(C)C)C(C)(C)C [RO-319790]
Ki [1]: 2 nM
inhibition (Mus musculus [19]): inactive
IC50 [3]: 5720 nM
Ki (Interstitial collagenase): 2 nM
Ki [20]: 87 nM
Ki (Stromelysin-1 [5]): 310 nM
